Among the data in patent US7402606B2, “Derivatives of 1-(oxoaminoacetyl) pentylcarbamate as cathepsin K inhibitors for the treatment of bone loss” (SmithKline Beecham Corporation, priority 2002, dated 2008) are IC50 values, retold here.

Each structure is given as a SMILES string. pIC50: −log10 of the molar value.

For orientation: pIC50 means the negative decadic logarithm of the IC50, by convention in mol/L.

The target in this test is T1, human cathepsin K (Homo sapiens, UniProt P43235).
T1 construct: The proform of cathepsin K was converted to mature cathepsin K by brief exposure to pH 4; made in house; host or cells: baculovirus; Trichoplusia ni High Five cells (virus raised in Sf-9)
T1 sequence (P43235 115-329): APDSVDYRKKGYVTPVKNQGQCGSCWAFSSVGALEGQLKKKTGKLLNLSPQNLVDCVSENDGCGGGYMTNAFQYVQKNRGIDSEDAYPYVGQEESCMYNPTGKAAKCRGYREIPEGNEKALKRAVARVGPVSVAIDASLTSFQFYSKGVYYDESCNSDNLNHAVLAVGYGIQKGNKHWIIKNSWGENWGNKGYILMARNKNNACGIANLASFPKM
The test can be described thus: Cathepsin K inhibition assay, human recombinant enzyme, fluorogenic substrate Cbz-Phe-Arg-AMC. Format: biochemical. The conditions noted are these: Table 1, human cathepsin K; read-out: h Cat K IC50. The procedure: All assays for cathepsin K were carried out with human and rat recombinant enzyme. Assays for cathepsins S ? V were also carried out with human recombinant enzyme. Assays for human cathepsins B, H, and L were carried out with enzyme, purchased from Athens Research and Technology, Inc., prepared from human liver tissue. […] A stock substrate solution of Cbz-Phe-Arg-AMC was prepared at a concentration of 50 mM in dimethyl sulfoxide. This substrate was diluted into the assay for a final substrate concentration of 10 μM in the rat cathepsin K, human cathepsin K, and human cathepsin B assays; a final substrate concentration of 5 μM in the human cathepsin L assay; and a final substrate concentration of 2 μM in the human cathepsin V assay.
All assays contained 10% dimethyl sulfoxide. […] All assays were conducted at 30° C. Product fluorescence (excitation at 360 nm; emission at 440 nm, (except cathepsin H which used excitation at 340 nm; emission at 420 nm)) was monitored with a PerSeptive Biosystems Cytofluor II fluorescence plate reader. Product progress curves were generated over 2.3 h monitoring the formation of 7-amino-4-methylcoumarin product (or β-naphthalamide for cathepsin H).
Human and rat Cathepsin K:
Two liters of Spodoptera frugiperda (Sf-9) cells (ATCC) were grown in Grace's Supplemented medium (Life Technologies) supplemented with 2 g/L glucose, 10% fetal bovine serum (HyClone) and 0.1% pluronic F-68 (Life Technologies). […] The cells continued to grow for 72 h post-infection, before the virus was harvested by centrifugation at 1400×g for 30 min.
One and one-half liters of Trichoplusia ni (T. ni) High Five (™) cells [JRH Biosciences, Woodland, Calif. […] The cells were grown for 24 h at 28° C., 50 RPM, and 50% dissolved oxygen. […] Media were separated from cells at a rate of 1 L/min using the Centritech 100 ™ continuous-flow centrifuge (DuPont) operating at 200×g.
Protein Purification: Media (human and rat) were filtered through a Whatman 3 filter, and then loaded onto a 25 mL. Poros HS II (26 mm×47 mm) cation exchange column equilibrated in 25 mM sodium acetate at pH 5.5 (equilibration buffer). The column was washed until the absorbance reached the baseline value, and then the protein was eluted with a linear gradient from 0-2 M sodium chloride in the equilibration buffer. Column fractions were analyzed by SDS-PAGE, N-terminal sequencing, and mass spectrometry. Fractions containing the proform of cathepsin K were pooled and frozen at −80° C. The proform was concentrated in an Amicon Centriprep 10 and fractionated with a Superdex 75 column (26 mm×600 mm, Pharmacia) equilibrated in 400 mM sodium chloride, 25 mM sodium acetate at pH 5.5.
Cathepsin K Activation: The proform of cathepsin K was converted to mature cathepsin K by brief exposure to pH 4 in the presence of 5 mM L-cysteine. Typically, 5 mM L-cysteine was added to 10 mL of approximately 1 mg/mL procathepsin K. One mL of this solution was diluted ten-fold into 450 mM sodium acetate at pH 4.0 containing 5 mM L-cysteine. This solution was reacted at 23° C. for 2 min before neutralization with 2 mL, 1.8 M sodium acetate at pH 6.0. The neutralized sample was added to the remaining 9 mL of procathepsin K. The mixture was incubated at 4° C. for 2-3 days. The activated cathepsin K was chromatographed on a Poros HS II column as described above.
Potential inhibitors were evaluated using the progress curve method. Assays were carried out in the presence of variable concentrations of test compound. Reactions were initiated by addition of buffered solutions of inhibitor and substrate to enzyme. Data analysis was conducted according to one of two procedures depending on the appearance of the progress curves in the presence of inhibitors. […] Ki values were calculated from IC50 values using equation 2 assuming a competitive model.
On to `CCCC[C@H](NC(=O)O[C@@H]1CN(C(=O)Cc2ccccc2Oc2ccccc2)CC1(C)C)C(=O)C(=O)N[C@H](C)c1ccccc1` [Example 31, (3S)-4,4-Dimethyl-1-[(2-phenoxyphenyl)acetyl]pyrrolidinyl (1S)-1-(oxo{[(1R)-1-phenylethyl]amino}acetyl)pentylcarbamate], for which the pIC50 is 7.00 to 8.00. `CCCC[C@H](NC(=O)O[C@@H]1CN(C(=O)c2nc[nH]n2)CC1(C)C)C(=O)C(=O)N[C@H](C)c1ccccc1` [Example 34, (3S)-4,4-Dimethyl-1-(1H-1,2,4-triazol-3-ylcarbonyl)pyrrolidinyl (1S)-1-(oxo{[(1R)-1-phenylethyl]amino}acetyl)pentylcarbamate]: the pIC50 was 7.00 to 8.00. For `CCCC[C@H](NC(=O)O[C@@H]1CN(C(=O)Nc2ccc(C#N)cc2)CC1(C)C)C(=O)C(=O)N[C@H](C)c1ccccc1` [Example 69, (3S)-1-[(4-Cyanoanilino)carbonyl]-4,4-dimethylpyrrolidinyl (1S)-1-(oxo{[(1R)-1-phenylethyl]amino}acetyl)pentylcarbamate], the pIC50 is 7.00 to 8.00. On to `CCCC[C@H](NC(=O)O[C@@H]1CN(C(=O)OCc2ccsc2)CC1(C)C)C(=O)C(=O)N[C@H](C)c1ccccc1` [Example 42, 3-Thienylmethyl (4S)-3,3-dimethyl-4-[({[(1S)-1-(oxo {[(1R)-1-phenylethyl]amino}acetyl)pentyl]amino}carbonyl)oxy]-1-pyrrolidinecarboxylate], for which the pIC50 is 7.00 to 8.00.

`CCCC[C@H](NC(=O)O[C@@H]1CN(C(=O)N2CCOCC2)CC1(C)C)C(=O)C(=O)N[C@H](C)c1ccccc1` [Example 73, (3S)-4,4-Dimethyl-1-(4-morpholinylcarbonyl)pyrrolidinyl (1S)-1-(oxo{[(1R)-1-phenylethyl]amino}acetyl)pentylcarbamate]: the negative logarithm of the IC50 (pIC50) is 7.00 to 8.00. With `CCCC[C@H](NC(=O)O[C@@H]1CN(C(=O)Cc2ccc(F)cc2)CC1(C)C)C(=O)C(=O)N[C@H](C)c1ccccc1` [Example 39, (3S)-1-[(4-Fluorophenyl)acetyl]-4,4-dimethylpyrrolidinyl (1S)-1-(oxo{[(1R)-1-phenylethyl]amino}acetyl)pentylcarbamate], the pIC50 was 7.00 to 8.00. As to `CCCC[C@H](NC(=O)O[C@@H]1CN(C(=O)Nc2c(C)noc2C)CC1(C)C)C(=O)C(=O)N[C@H](C)c1ccccc1` [Example 67, (3S)-1-{[(3,5-Dimethyl-4-isoxazolyl)amino]carbonyl}-4,4-dimethylpyrrolidinyl (1S)-1-(oxo{[(1R)-1-phenylethyl]amino}acetyl)pentylcarbamate], the pIC50 was 7.00 to 8.00. To `CCCCC(NC(=O)O[C@@H]1COCC1(C)C)C(=O)C(=O)N[C@H](C)c1ccccc1` (stereo partly drawn) [Example 83, (3S)-4,4-Dimethyltetrahydro-3-furanyl 1-(oxo{[(1R)-1-phenylethyl]amino}acetyl)pentylcarbamate] belongs 7.00 to 8.00. For the compound `CCCC[C@H](NC(=O)O[C@@H]1CN(C(=O)Cc2ccc(-c3ccccc3)cc2)CC1(C)C)C(=O)C(=O)N[C@H](C)c1ccccc1` [Example 30, (3S)-1-([1,1′-Biphenyl]-4-ylacetyl)-4,4-dimethylpyrrolidinyl (1S)-1-(oxo {[(1R)-1-phenylethyl]amino}acetyl)pentylcarbamate], the pIC50 is 7.00 to 8.00.

As for `CCCC[C@H](NC(=O)O[C@@H]1CN(C(=O)Cc2cc(C)no2)CC1(C)C)C(=O)C(=O)N[C@H](C)c1ccccc1` [Example 35, (3S)-4,4-Dimethyl-1-[(3-methyl-5-isoxazolyl)acetyl]pyrrolidinyl (1S)-1-(oxo{[(1R)-1-phenylethyl]amino}acetyl)pentylcarbamate], the pIC50 was 8.00 to 9.00. With `CCCC[C@H](NC(=O)OC1C(=O)N(Cc2ccccc2)CC1(C)C)C(=O)C(=O)N[C@H](C)c1ccccc1` (stereo partly drawn) [Example 4, 1-Benzyl-4,4-dimethyl-2-oxo-3-pyrrolidinyl (1S)-1-(oxo{[(1R)-1-phenylethyl]amino}acetyl)pentylcarbamate], the negative logarithm of the IC50 (pIC50) was 7.00 to 8.00. Regarding `CCCC[C@H](NC(=O)O[C@@H]1CN(C(=O)c2cccnc2)CC1(C)C)C(=O)C(=O)N[C@H](C)c1ccccc1` [Example 66, (3S)-4,4-Dimethyl-1-(3-pyridinylcarbonyl)pyrrolidinyl (1S)-1-(oxo{[(1R)-1-phenylethyl]amino}acetyl)pentylcarbamate], the pIC50 is 7.00 to 8.00.

Take `CCCC[C@H](NC(=O)O[C@@H]1CN(C(=O)c2ccc3[nH]nnc3c2)CC1(C)C)C(=O)C(=O)N[C@H](C)c1ccccc1` [Example 22, (3S)-1-(1H-1,2,3-Benzotriazol-5-ylcarbonyl)-4,4-dimethylpyrrolidinyl (1S)-1-(oxo{[(1R)-1-phenylethyl]amino}acetyl)pentylcarbamate]: the pIC50 is 8.00 to 9.00. For the compound `CCCC[C@H](NC(=O)O[C@@H]1CN(C(=O)NC(=O)c2ccccc2)CC1(C)C)C(=O)C(=O)N[C@H](C)c1ccccc1` [Example 75, (3S)-1-[(Benzoylamino)carbonyl]-4,4-dimethylpyrrolidinyl (1S)-1-(oxo{[(1R)-1-phenylethyl]amino}acetyl)pentylcarbamate], the pIC50 is 7.00 to 8.00. Turning to `CCCC[C@H](NC(=O)O[C@@H]1CN(C(=O)Oc2cccc(Oc3ccccc3)c2)CC1(C)C)C(=O)C(=O)N[C@H](C)c1ccccc1` [Example 59, 3-Phenoxyphenyl (4S)-3,3-dimethyl-4-[({[(1S)-1-(oxo{[(1R)-1-phenylethyl]amino}acetyl)pentyl]amino}carbonyl)oxy]-1-pyrrolidinecarboxylate], the pIC50 is 7.00 to 8.00. On to `CCCC[C@H](NC(=O)O[C@@H]1CN(C(=O)Oc2ccc3ccccc3c2)CC1(C)C)C(=O)C(=O)N[C@H](C)c1ccccc1` [Example 60, 2-Naphthyl (4S)-3,3-dimethyl-4-[({[(1S)-1-(oxo {[(1R)-1-phenylethyl]amino}acetyl)pentyl]amino}carbonyl)oxy]-1-pyrrolidinecarboxylate], for which the negative logarithm of the IC50 (pIC50) was 7.00 to 8.00. On to `CCCC[C@H](NC(=O)O[C@@H]1CN(C(=O)OCC2CCCCO2)CC1(C)C)C(=O)C(=O)N[C@H](C)c1ccccc1` (stereo partly drawn) [Example 48, Tetrahydro-2H-pyran-2-ylmethyl (4S)-3,3-dimethyl-4-[({[(1S)-1-(oxo{[(1R)-1-phenylethyl]amino}acetyl)pentyl]amino}carbonyl)oxy]-1-pyrrolidinecarboxylate], for which the pIC50 was 6.00 to 7.00. As for `CCCC[C@H](NC(=O)O[C@@H]1CN(C(=O)c2cc3ccccc3s2)CC1(C)C)C(=O)C(=O)N[C@H](C)c1ccccc1` [Example 17, (3S)-1-(1-Benzothien-2-ylcarbonyl)-4,4-dimethylpyrrolidinyl (1S)-1-(oxo{[(1R)-1-phenylethyl]amino}acetyl)pentylcarbamate], the pIC50 was 8.00 to 9.00.

With `CCCC[C@H](NC(=O)O[C@@H]1CN(C(=O)OCc2cc(C)on2)CC1(C)C)C(=O)C(=O)N[C@H](C)c1ccccc1` [Example 52, (5-methyl-3-isoxazolyl)methyl (4S)-3,3-dimethyl-4-[({[(1S)-1-(oxo{[(1R)-1-phenylethyl]amino}acetyl)pentyl]amino}carbonyl)oxy]-1-pyrrolidinecarboxylate], the pIC50 was 7.00 to 8.00.

As for `CCCC[C@H](NC(=O)O[C@@H]1CN(C(=O)CCCc2ccccc2)CC1(C)C)C(=O)C(=O)N[C@H](C)c1ccccc1` [Example 24, (3S)-4,4-Dimethyl-1-(4-phenylbutanoyl)pyrrolidinyl (1S)-1-(oxo {[(1R)-1-phenylethyl]amino}acetyl)pentylcarbamate], the pIC50 is 7.00 to 8.00.
